Test [1] concerns primary human dermal fibroblasts (HDF). Kind of test: Reprogramming efficiency of OSKM-transduced somatic cells to iPSCs (HDF). The test is classed as cell-based. The source says:
(§1) In order to examine whether 4,6-di-4-morpholinyl-N-(4-nitrophenyl)-1,3,5-triazin-2-amine (MHY1485, CAS Number 326914-06-1), which is an mTOR (mammalian target of rapamycin) activator, has an influence on reprogramming efficiency, reprogramming factors (OCT4, SOX2, c-Myc, KLF4; OSKM) were transduced into primary umbilical vein endothelial cells (HUVEC, ATCC #PCS-100-010), primary human dermal fibroblasts (HDF, ATCC # PCS-201-012), and human placenta derived cells (HPC) via the Sendai virus (SeV) system as shown in FIG. 1a.
(§2) Twenty-four hours after transduction, the cells were cultured for one week in a placenta-derived cell conditioned medium (PCCM) or growth medium (GM). MHY1485 was added at a dose of 2 μg/mL once per 24 hours for three weeks. After one week of the culturing in a placenta-derived cell conditioned medium (PCCM) or growth medium (GM), the cells were induced to undergo reprogramming for two weeks in Matrigel-coated culture dishes containing mTeSR medium together with MHY1485 under a general pluripotent stem cell culturing condition.

Test [2] relates to human placenta derived cells (HPC). As to the kind of experiment: Reprogramming efficiency of OSKM-transduced somatic cells to iPSCs (HPC). It is filed as cell-based.
Text: as §1, §2

In test [3] the test system is LC3a/b in HUVEC, HDF, and HPC cells. As to the kind of experiment: Immunofluorescence assay of LC3a/b (autophagy) in somatic cells. It is filed as cell-based, human. The conditions noted are these: rapamycin as control.
Test [4] concerns CXCR2, mTOR, cMYC, LC3a/b, p62 in HUVEC, HDF, and HPC cells. Kind of test: Western blot of protein expression in somatic cells with or without MHY1485. The test is classed as cell-based, human.
Text: as §1, §2
Western blotting identified the expression of CXCR2, mTOR, and cMYC. Autophagic flux activity was identified […].
A general note: Immunoblotting shows a protein as a band on a membrane.

Test [5] concerns HUVEC, HDF, and HPC cells. Kind of test: Reprogramming efficiency, HUVEC, HDF and HPC taken together (total of 9 dishes). The test is classed as cell-based, human.
Text: as §1, §2
HUVEC, HDF, and HPC cells were induced to undergo reprogramming by treatment with MHY1485 or in PCCM in three dishes for each cell line.

The subject of test [6] is primary umbilical vein endothelial cells (HUVEC). As to the kind of experiment: Reprogramming efficiency of OSKM-transduced somatic cells to iPSCs (HUVEC). It is filed as cell-based, human.
Text: as §1, §2

Setting [7] is: GM + MHY1485 (2 μg/mL once per 24 hours for three weeks).
The mark [8] stands for this setting: treatment with MHY1485 vs no treatment.

The structures appear in SMILES notation.

As to `O=[N+]([O-])c1ccc(Nc2nc(N3CCOCC3)nc(N3CCOCC3)n2)cc1` [MHY1485, 4,6-di-4-morpholinyl-N-(4-nitrophenyl)-1,3,5-triazin-2-amine], the “Reprogramming efficiency (%)” value in test [1] (setting [7]) is 0.04%; in test [1] (hPCCM + MHY1485 (2 μg/mL)), 0.07%; in test [2] (setting [7]), 0.35%; in test [2] (hPCCM + MHY1485 (2 μg/mL)), 0.92%; in test [5] (GM + MHY1485, HUVEC, HDF, HPC, three dishes each, total of 9 dishes) it was 0.17%; in test [6] (setting [7]), 0.13%. Also, the “Reprogramming efficiency (%)” value in test [6] (hPCCM + MHY1485 (2 μg/mL)) is 0.39%. In addition, the “expression of LC3a/b (inhibition of autophagy)” value in test [3] is “decreased”. In addition, the “expression level of p62 (indicates inactivation of autophagic flux)” value in test [4] (treatment with MHY1485) was “increased”. Also, the “expression of CXCR2” value in test [4] (setting [8]) is recorded as “increased”. Further, in test [4] (setting [8]), the “expression of LC3a/b” value is listed as “decreased”. Moreover, the “expression of cMYC” value in test [4] (setting [8]) is given as “increased”. Besides, in test [4] (setting [8]), the “expression of mTOR” value is on record as “increased”. The “effect of increasing reprogramming efficiency, compared to the employment of PCCM medium” value in test [5] (MHY1485 treatment vs PCCM medium, FIG. 4 and Table 2) is listed as “significantly higher”. The “reprogramming efficiency compared to untreated cells” value in test [5] (all the cells (HUVEC, HDF, HPC), FIGS. 2a to 2c) was “increased”.

The values are drawn from patent publication US20230013363A1, “COMPOSITION FOR ENHANCING REPROGRAMMING EFFICIENCY FROM SOMATIC CELL TO INDUCED PLURIPOTENT STEM CELL, COMPRISING MTOR ACTIVATOR, AND METHOD FOR ENHANCING REPROGRAMMING EFFICIENCY BY USING SAME” (KOREA UNIVERSITY RESEARCH AND BUSINESS FOUNDATION, priority 2019, published 2023).
